In ChEMBL document CHEMBL1145267, “Antioxidant and antiproliferative activity of curcumin semicarbazone” (2005):

Tests used:
Format in all cases: functional
MCF7 = assay: Compound tested for percent viability of human MCF-7 cell line at 1 mg/mL concentration after 24 hrs by MTT method
Rattus norvegicus [1] = organism: Rattus norvegicus; assay: Compound (10 uM) tested for percent inhibition of […] induced lipid peroxidation in rat liver microsomes; Range 85-54%
Rattus norvegicus [2] = organism: Rattus norvegicus; assay: Compound (10 uM) tested for percent inhibition of […] induced lipid peroxidation in rat liver microsomes; Range 80-60%

Row | SMILES | Viability (MCF7) [%] | inhibition (Rattus norvegicus [1]) [%] | inhibition (Rattus norvegicus [2]) [%]
1 | COc1cc(/C=C/C(=O)CC(/C=C/c2ccc(O)c(OC)c2)=N/NC(N)=O)ccc1O | 26 | 85 | 
2 | COc1cc(/C=C/C(=O)CC(=O)/C=C/c2ccc(O)c(OC)c2)ccc1O [CURCUMIN] | 64 |  | 80
